Results as given in patent publication US9951001B2 (Acorda Therapeutics, Inc., priority 2008, dated 2018).
≈ marks a conversion by molar mass, not a printed value. Structures can show the parent of a compound that is named as a salt. Where two headings read alike, the source gives them in different places.

Experiments:
[1] = physchem; settings: for solubility: water, Solubility in water at room temperature
Method: To a stirred colorless solution of (S)-4-acetamidophenyl 2-(tert-butoxycarbonylamino)-4-(methylthio)butanoate (0.5 g, 1.3 mmol) in dioxane (10 mL) was added 40 mL of HCl in dioxane (4M).

[2] = test system: C57BL6 mice; assay: Acute acetaminophen-induced hepatotoxicity in mice (plasma ALT and AST)
Method: Hepatotoxicity was evaluated by measuring standard plasma enzymatic markers (Alanine transaminase (ALT) and Aspartate transaminase (AST)) of liver damage.

[3] = cited from earlier work

melting point | solubility [1] | SMILES | further results
225 to 228 °C |  | CSCC[C@H](N)C(=O)Oc1ccc(NC(C)=O)cc1 (as salt: HCl) [Compound (II-A), (S)-4-acetamidophenyl 2-amino-4-(methylthio)butanoate] | 
 | ~14.3 mg/mL (≈ 94.6 mM) | CC(=O)Nc1ccc(O)cc1 [Acetaminophen, N-(4-hydroxyphenyl)acetamide] | Treated mice with elevated ALT levels ([2]; mouse, in vivo): 83%; Treated mice with increased AST levels ([2]; mouse, in vivo): all
 | 500 mg/mL (≈ 1770 mM) | CSCC[C@H](N)C(=O)Oc1ccc(NC(C)=O)cc1 [Compound (II-A), (S)-4-acetamidophenyl 2-amino-4-(methylthio)butanoate] | 
95 to 99 °C |  | CC(=O)Nc1ccc(OC(=O)C(CSSCC(NC(C)=O)C(=O)O)NC(C)=O)cc1 (centres unmarked) [Example 2, 2-acetamido-3-((2-acetamido-3-(4-acetamidophenoxy)-3-oxopropyl)disulfanyl)propanoic acid] | 

The next lines start with the compound.

SMILES | melting point | solubility [1] | further results
CC(=O)Nc1ccc(OC(=O)C(N)CSSCC(N)C(=O)O)cc1.Cl.Cl (centres unmarked) | 230 to 237 °C |  | 
CC(=O)Nc1ccc(OC(=O)C(N)CSSCC(N)C(=O)Oc2ccc(NC(C)=O)cc2)cc1 (centres unmarked) (as salt: trifluoroacetate) [Example 4, bis(4-acetamidophenyl)3,3′-disulfanediylbis(2-aminopropanoate)di(trifluoroacetate)] | > 300 °C |  | 
CC(=O)Nc1ccc(OC(=O)C(N)CSSCC(NC(C)=O)C(=O)O)cc1 (centres unmarked) [Compound II-D sodium salt, 2-acetamido-3-((3-(4-acetamidophenoxy)-2-amino-3-oxopropyl)disulfanyl)propanoic acid] |  |  | Solubility in water at room temperature [1]: 52 mg/mL
CC(=O)Nc1ccc(OC(=O)C(N)CSSCC(NC(C)=O)C(=O)O)cc1 (centres unmarked) [II-D, 2-acetamido-3-((3-(4-acetamidophenoxy)-2-amino-3-oxopropyl)disulfanyl)propanoic acid] |  | 47 mg/mL (≈ 113 mM) | 
O=C1N[C@H](C(=O)O)CS1 [L-2-oxothiazolidine-4-carboxylate] |  |  | GSH tissue levels ([3]; administered 30 minutes post-acetaminophen administration): 6.1 μmol/g of tissue; GSH tissue levels ([3]; administered 120 minutes post-acetaminophen administration): 5.3 μmol/g of tissue
CSCC[C@H](N)C(=O)O [l-methionine] |  |  | AST and ALT increases in acetaminophen-treated animals ([2]; co-administration of equimolar doses of l-methionine and acetaminophen): significantly reduced; Serum AST and ALT levels ([2]; oral l-methionine alone (167 mg/kg)): did not affect
